This is an account of results in US20090182014A1, “INSECTICIDAL COMPOSITIONS COMPRISING COMPOUNDS HAVING INHIBITORY ACTIVITY VERSUS ACYL COA: CHOLESTEROL ACYLTRANSFERASE OR SALTS THEREOF AS EFFECTIVE INGREDIENTS” (priority 2003, published 2009).

Values after ≈ are worked out from the molar mass of the structure shown.

For orientation: IC50 means the concentration that inhibits the measured activity by half.

The subject of assay [1] is acyl CoA:cholesterol acyltransferase (ACAT). Briefly: Assay for ACAT inhibitory activity using hepatic microsomes, cholesterol and 14C-labeled oleoyl-CoA. Format: biochemical. The protocol: In the method, ACAT activity was determined using hepatic microsomes as a source of ACAT with substrates of cholesterol and ^14C-labeled oleoyl-CoA. The radioactivity of the reaction product cholesterol ester was estimated as the ACAT activity.
In detail, a reaction mixture was prepared as follows. […] To stabilize enzyme reaction, bovine serum albumin was added to the mixture to a final concentration of 30 μM. Then, a sample dissolved in DMSO or methanol was added to the mixture. The resulting reaction mixture was preincubated at 37° C. for 30 min. The enzyme reaction was then initiated by adding [1-^14C]-oleoyl Coenzyme A solution to a final concentration of 0.04 μCi. After 30 min of incubation at 37° C., the reaction was stopped by addition of 1 ml of an isopropanol-heptane solution. Then, 0.6 ml of n-heptane and 0.4 ml of KPB buffer were added to the terminated reaction mixture. The mixture was well mixed and allowed to stand at room temperature for 2 min. After phase separation, 200 μl of the supernatant was put into a scintillation vial. After adding 4 ml of a scintillation cocktail (Lipoluma, Lumac Co.) to the vial, the amount of synthesized cholesteryl oleate was measured with a scintillation counter (Packard Delta-200). The inhibitory activity versus ACAT was calculated according to the following Equation 1:
Inhibitory activity (%)=[1−(T−B/C−B)]×100
T: cpm in a test reaction mixture that contains a compound of the present invention along with an enzyme source;

Assay [2] concerns Tenebrio molitor L larvae. Briefly: Diet (wheat bran) assay against Tenebrio molitor L larvae: larval weight, growth, killing. Format: in vivo. The following applies: 1 mg mixed with 10 g wheat bran; for larval weight-reducing effect in T. molitor L larvae (FIG. 8): larval weight on day 3 and 7, compared with control. The protocol: Among the present compounds with an ACAT inhibitory activity, the phenylpyropene A, B and C (Formulas 2 to 4) were tested for weight-reducing effect in larval insects. In this test, larvae of Tenebrio molitor L. was used as an experimental insect, which was obtained from the insect research lab, KRIBB, Korea. Healthy second-instar larvae (10-12 mm) of Tenebrio molitor L was selected 24 hrs before performing this test. Each of the compounds of Formulas 2 to 4 was dissolved in 10% acetone to a final concentration of 1 mg/ml and serially diluted. 1 ml of the diluted compound solution was mixed with […] of wheat bran commonly used as a diet. The resulting mixture was put into a glass petri dish (90×20 mm), and the petri dish was placed in a desiccator for about 2 hrs under pressure to remove the organic solvent. After being weighed, 10 highly mobile larvae of T. molitor L for each test set were placed in a petri dish (87×15 mm) with a filter paper disk, together with the mixture of the present compound and wheat bran. Then, the larvae were grown in at 25±±1° C. under 40-45% relative humidity with a 16-hour light/8-hours dark cycle. After 72 hrs, larval weight and diet intake were recorded every three days. This assay was performed on three replicates, and a control group was treated with 10% acetone.

The subject of assay [3] is Plutella xylostella L larvae. Briefly: Leaf-disk bioassay against Plutella xylostella L larvae. Format: in vivo. Particulars: treated with 0.001 to 1 mg; investigated at intervals of 24 hrs; compared with control. The protocol: Larvae of Plutella xylostella L was used as an experimental insect in this test, which was obtained from the Insect Research Lab, Korean Research Institute of Bioscience and Biotechnology (KRIBB), Oun-dong, Yusong-ku, Taejon, Korea. After being weighed accurately, a proper amount of the present compounds with an ACAT inhibitory activity were was dissolved in acetone, mixed with nine volumes of a 100 ppm Triton X-100 stock solution, and serially diluted, thus giving active compound solutions. A diet for the growth of the P. xylostella L larvae was prepared, as follows: leaves of cabbages with uniform growth were cut into leaf disks (3.0 cm in diameter), dipped in the active compound solutions for 30 sec, and dried in a hood for 60 min. Each of the active compound-treated leaf disks was put in a petri dish (55×20 mm) with a filter paper disk. Then, 10 second-instar larvae of P. xylostella L were placed on each leaf disc using a soft brush with caution not to damage the larvae, and grown in an incubator (25±1° C., 40-45% relative humidity, 16L:8D). After 24 hrs and 48 hrs, mortality was recorded. […] This leaf-disk bioassay was performed on three replicates, and LC50 (50% lethal concentration) was calculated by the Probit method developed by Finney (1982).

The mark [4] stands for this setting: hepatic microsomes as source of ACAT.
The mark [5] stands for this setting: calculated from the μg/ml value and molecular weight.

On to `CCCCCCCC/C=C\CCCCCCCC(=O)Nc1c(OC)cc(OC)cc1OC` [Formula 7], for which the ACAT inhibitory activity in assay [1] (concentration 20 μg/ml) came to 96.6%; in assay [1] (concentration 100 μg/ml) it was 97.8%.

`CC(C)c1cccc(C(C)C)c1OC(=O)NS(=O)(=O)Oc1c(C(C)C)cccc1C(C)C` [Formula 8]: the ACAT inhibitory activity came out at 84.5% in assay [1] (concentration 20 μg/ml) and 93.8% in assay [1] (concentration 100 μg/ml).

As to `Cc1cc(Cc2cc(C)cc(C(C)(C)C)c2O)c(O)c(C(C)(C)C)c1` [Formula 9], the ACAT inhibitory activity in assay [1] (concentration 20 μg/ml) was found to be 93.4%; in assay [1] (concentration 100 μg/ml) it was 98.4%.

As to `O=C(/C=C/C=C/c1ccc2c(c1)OCO2)N1CCCCC1` [Formula 10], the ACAT inhibitory activity in assay [1] (concentration 20 μg/ml) was determined as 17.6%; in assay [1] (concentration 100 μg/ml), 82.0%.

As to `CCCCCCCNC(=O)CCCCSC1NC(c2ccccc2)C(c2ccccc2)N1` (stereo not shown) [Formula 11], the values for the ACAT inhibitory activity in assay [1] (concentration 20 μg/ml) and in assay [1] (concentration 100 μg/ml) were 84.8% and 89.6%, respectively.

In the case of `CC(=O)OCC1(C)C2C[C@H](OC(C)=O)[C@@]3(C)Oc4cc(-c5ccccc5)oc(=O)c4[C@H](O)C3[C@@]2(C)CC[C@@H]1OC(C)=O` (stereo partly shown) [phenylpyropene A], the IC50 in assay [1] (calculated from the ng/ml value and molecular weight) was 0.086 µM. Further, the “IC50 (compound concentration to inhibit by 50% of ACAT activity)” value in assay [1] (setting [4]) worked out at 0.5 µg/mL. In assay [2], the “larval growth inhibition in T. molitor L larvae (FIG. 9)” value (“larval growth inhibition” below) is reported as “larval growth inhibition was found” and the “larval weight-reducing effect in T. molitor L larvae (FIG. 8)” value (shortened to “larval weight-reducing effect”) was “lasting larval weight-reducing effect”.

Turning to `CC(=O)OCC1(C)C(OC(C)=O)CC[C@@]2(C)C1CC[C@@]1(C)Oc3cc(-c4ccccc4)oc(=O)c3CC21` (stereo partly shown) [phenylpyropene B], the IC50 in assay [1] (setting [5]) is 12.8 µM. Moreover, in assay [1] (setting [4]), the “IC50 (ACAT activity)” value turned out to be 6.5 µg/mL (≈ 12.8 µM). Further, the “larval weight-reducing effect” value in assay [2] was “lasting larval weight-reducing effect”.

Turning to `CC(=O)OC1CC[C@@]2(C)C(CC[C@@]3(C)Oc4cc(-c5ccccc5)oc(=O)c4CC23)C1(C)C` (stereo partly shown) [phenylpyropene C], the IC50 in assay [1] (setting [5]) was 16 µM. Further, the “IC50 (ACAT activity)” value in assay [1] (setting [4]) was 7.2 µg/mL (≈ 16 µM). In addition, in assay [2], the “larval growth inhibition” value is recorded as “larval growth inhibition was found” and the “larval weight-reducing effect” value is listed as “lasting larval weight-reducing effect”.

On to `CC(=O)OC[C@@]1(C)[C@@H]2C[C@H](OC(C)=O)[C@@]3(C)Oc4cc(-c5cccnc5)oc(=O)c4[C@H](O)[C@@H]3[C@@]2(C)CC[C@@H]1OC(C)=O` [pyripyropene A], for which the “insecticidal effect against P. xylostella L larvae (FIG. 6)” value in assay [3] is reported as “lasting insecticidal effect in a dose-dependant manner”. Besides, in assay [2], the “T. molitor L insect killed in the larval and pupa stages” value is “most of the T. molitor L insect was killed in the larval and pupa stages”; the “larval growth inhibition” value is “larval growth inhibition was found”.

Regarding pheophorbide a, in assay [2], the “larval growth inhibition” value was “larval growth inhibition was found”.
